Results reported in patent EP0895988B1, “Arylsulfonylamino hydroxamic acid derivatives” (Pfizer Products Inc., priority 1997, dated 1999).
Where “and” joins values, the source holds several entries; their conditions need not be identical. Equal entries are not always repeated.

Experiments:
[1] = target: T1, Human recombinant collagenase (MMP-1) (Homo sapiens, UniProt P03956); assay: Inhibition of Human Collagenase (MMP-1); assay type: biochemical; settings: fluorogenic substrate DNP-Pro-Cha-Gly-Cys(Me)-His-Ala-Lys(NMA)-NH2; room temperature; repeated determinations
T1 sequence (P03956 100-469): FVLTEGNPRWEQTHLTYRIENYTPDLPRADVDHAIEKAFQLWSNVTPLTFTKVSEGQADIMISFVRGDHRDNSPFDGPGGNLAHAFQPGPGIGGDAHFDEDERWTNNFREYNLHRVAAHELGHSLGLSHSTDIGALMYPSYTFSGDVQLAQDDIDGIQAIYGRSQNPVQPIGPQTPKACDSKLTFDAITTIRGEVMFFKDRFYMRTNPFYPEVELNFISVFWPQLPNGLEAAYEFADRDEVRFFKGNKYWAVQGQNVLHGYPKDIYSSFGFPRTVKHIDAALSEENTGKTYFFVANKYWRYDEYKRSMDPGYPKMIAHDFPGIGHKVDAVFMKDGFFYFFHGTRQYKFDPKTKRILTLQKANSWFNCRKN
Method: Human recombinant collagenase is activated with trypsin using the following ratio: […] of collagenase. The trypsin and collagenase are incubated at room temperature for 10 minutes then a five fold excess (50 mg/10 mg trypsin) of soybean trypsin inhibitor is added.
10 mM stock solutions of inhibitors are made up in dimethyl sulfoxide and then diluted using the following Scheme: 10 mM → 120 µm → 12 µM → 1.2 µM → 0.12 µM [formula]
Twenty-five microliters of each concentration is then added in triplicate to appropriate wells of a 96 well microfluor plate. The final concentration of inhibitor will be a 1:4 dilution after addition of enzyme and substrate. Positive controls (enzyme, no inhibitor) are set up in wells D1-D6 and blanks (no enzyme, no inhibitors) are set in wells D7-D12.
Collagenase is diluted to 400 ng/ml and […] is then added to appropriate wells of the microfluor plate. Final concentration of collagenase in the assay is 100 ng/ml.
Substrate (DNP-Pro-Cha-Gly-Cys(Me)-His-Ala-Lys(NMA)-NH2) is made as a 5 mM stock in dimethyl sulfoxide and then diluted to […] in assay buffer. The assay is initiated by the addition of […] substrate per well of the microfluor plate to give a final concentration of […].
Fluorescence readings (360 nm excitation, 460 nm emission) were taken at time 0 and then at 20 minute intervals. The assay is conducted at room temperature with a typical assay time of 3 hours.
Fluorescence vs time is then plotted for both the blank and collagenase containing samples (data from triplicate determinations is averaged). […] The zero time is used as a blank for each compound at each concentration and these values are subtracted from the 120 minute data. Data is plotted as inhibitor concentration vs % control (inhibitor fluorescence divided by fluorescence of collagenase alone x 100). IC50's are determined from the concentration of inhibitor that gives a signal that is 50% of the control.
If IC50's are reported to be <0.03 mM then the inhibitors are assayed at concentrations of 0.3 mM, 0.03 mM, […].

[2] = target: Human recombinant MMP-13 (Homo sapiens, UniProt P45452); assay: Inhibition of MMP-13; assay type: biochemical; settings: fluorogenic substrate Dnp-Pro-Cha-Gly-Cys(Me)-His-Ala-Lys(NMA)-NH2; repeated determinations
Method: Human recombinant MMP-13 is activated with 2mM APMA (p-aminophenyl mercuric acetate) for 1.5 hours, at 37°C and is diluted to […] in assay buffer (50 mM Tris, pH 7.5, 200 mM sodium chloride, 5mM calcium chloride, […], 0.02% brij). Twenty-five microliters of diluted enzyme is added per well of a 96 well microfluor plate. The enzyme is then diluted in a 1:4 ratio in the assay by the addition of inhibitor and substrate to give a final concentration in the assay of […].
10 mM stock solutions of inhibitors are made up in dimethyl sulfoxide and then diluted in assay buffer as per the inhibitor dilution scheme for inhibition of human collagenase (MMP-1): Twenty-five microliters of each concentration is added in triplicate to the microfluor plate. The final concentrations in the assay are 30 mM, 3mM, 0.3 mM, and 0.03 mM.
Substrate (Dnp-Pro-Cha-Gly-Cys(Me)-His-Ala-Lys(NMA)-NH2) is prepared as for inhibition of human collagenase (MMP-1) and […] is added to each well to give a final assay concentration of […]. Fluorescence readings (360 nm excitation; 450 emission) are taken at time 0 and every 5 minutes for 1 hour.
Positive controls consist of enzyme and substrate with no inhibitor and blanks consist of substrate only.
IC50's are determined as per inhibition of human collagenase (MMP-1). If IC50's are reported to be less than […], inhibitors are then assayed at final concentrations of 0.3 mM, 0.03 mM, 0.003 mM and 0.0003 mM.

| Structure (SMILES) | IC50 [1] | IC50 [2] |
| --- | --- | --- |
| COC(=O)CCN(C1(C(=O)NO)CCCC1)S(=O)(=O)c1ccc(-c2ccc(F)cc2)cc1 [Example 1, 3-[(4'-FLUOROBIPHENYL-4-SULFONYL)-(1-HYDROXYCARBAMOYLCYCLO-PENTYL)AMINO]PROPIONIC ACID METHYL ESTER] | 80 nM and 145 nM | 10 nM and 12 nM |
| O=C(O)CCN(C1(C(=O)NO)CCCC1)S(=O)(=O)c1ccc(-c2ccc(F)cc2)cc1 [Example 2, 3-[(4'-FLUOROBIPHENYL-4-SULFONYL)-(1-HYDROXYCARBAMOYLCYCLO-PENTYL)AMINO]PROPIONIC ACID] | 195 nM and 300 nM and 200 nM | 1.7 nM and 3.5 nM and 2 nM |
| CC(C)(C(=O)NO)N(CCC(=O)O)S(=O)(=O)c1ccc(-c2ccc(F)cc2)cc1 [Example 4, 3-[(4'-FLUOROBIPHENYL-4-SULFONYL)-(1-HYDROXYCARBAMOYL-1-METHYL-ETHYL)AMINO]PROPIONIC ACID] | 800 nM | 52 nM |
| CCOC(=O)CCN(C(C)(C)C(=O)NO)S(=O)(=O)c1ccc(-c2ccc(F)cc2)cc1 [Example 3, 3-{(4'-FLUOROBIPHENYL-4-SULFONYL)-(1-HYDROXYCARBAMOYL-1-METHYL-ETHYL)AMINO]-PROPIONIC ACID ETHYL ESTER] | 4000 nM and 1300 nM | 20 nM and 17 nM |
